Source: patent US12065445B2, “CDK2 inhibitors and methods of using the same” (Cedilla Therapeutics, Inc., priority 2021, dated 2024)

What was measured:
Kuramochi cells = assay: BrdU Cell Proliferation Assay; format: cell-based; details: read-out: BrdU - KURAMOCHI.1: IC50
How it was run: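 Kuramochi cells were seeded at 2,000 cells/well, adhered overnight, then treated with a 10-point, 3-fold compound dilution series for 4 days. Proliferation was measured by a 1-hour BrdU pulse, anti-BrdU peroxidase colorimetric ELISA and 450 nm absorbance. Values were background-subtracted and normalized to DMSO wells.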

CDK2/Cyclin E1 = biological target: T1, CDK2/Cyclin E1 (Homo sapiens, UniProt P24941); assay: CDK2/Cyclin E1 Caliper Assay (LabChip EZ Reader mobility shift); format: biochemical; details: read-out: Caliper Assay (CDK2/CCNE1): IC50
T1 construct: purchased Eurofins 14-475
Protocol: Inhibition of CDK2/Cyclin E1 activity in the presence of compounds of the present disclosure was evaluated using a Caliper LabChip® EZ Reader mobility shift assay. In the assay, CDK2/Cyclin E1 (Eurofins, 14-475) catalyzed the phosphorylation of a fluorescently tagged peptide 5-FAM-QSPKKG-CONH2 (PerkinElmer, FL Peptide 18) which induced a difference in capillary electrophoresis mobility. The peptide substrate and product were measured, and the conversion ratio was used to determine the inhibition (as % activity and IC50 values) of CDK2/Cyclin E1. Reactions contained 50 mM HEPES pH 7.5, 10 mM MgCl2, 1 mM EDTA, 2 mM DTT, 0.01% Brij35, 0.5 mg/mL BSA, 0.1% DMSO, 2.5 nM CDK2/Cyclin E1, 100 μM ATP, and 1.5 μM fluorescent peptide substrate.
Dose titrations of inhibitors in 100% DMSO were combined with 3.25 nM CDK2/Cyclin E1 and 130 μM of ATP in reaction buffer. The mixtures were incubated for 30 minutes before the addition of fluorescent peptide substrate to initiate the kinase reaction. The final conditions were 2.5 nM CDK2/Cyclin E1, 100 μM ATP, and 1.5 μM fluorescent peptide. The reactions were stopped after 100 minutes with the addition of EDTA (400 mM final EDTA concentration). The stopped reactions were analyzed on a Caliper LabChip® EZ Reader II. The conversion ratios were normalized to yield % activity, plotted against compound concentration, and fit to a four-parameter equation to determine the IC50 for each compound.

[1] = system: Kuramochi cells labeled with mApple-H2B; assay: IncuCyte Cell Proliferation Assay; format: cell-based
How it was run: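 Cells imaged at 0 and 72 h after compound treatment (10 points, ½ log dilution, 20 μM top), with fluorescent nuclei counted. Fold change in count was normalized to DMSO wells and fitted to dose-response curves to give GI50.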

## CNC(=O)[C@@H](NC(=O)[C@@H]1CN(C(=O)c2cnn(Cc3ccccc3)c2)CC12CN(C(=O)C1(C(C)C)CC1)C2)[C@@H](C)OCc1ccccc1 [I-109A]
Kuramochi cells
  IC50: > 10 µM
CDK2/Cyclin E1
  IC50: > 10 µM

## C[C@@H](OCc1ccccc1)[C@H](NC(=O)C1CN(C(=O)c2cnn(Cc3ccccc3)c2)CC12CN(C(=O)C1CC1(C)C)C2)C(=O)NCCCCCNC(=O)OC(C)(C)C (some centres unmarked) [I-52]
[1]; 72 h
  IC50: 0.5 to 5 µM
Kuramochi cells
  IC50: 0.5 to 5 µM
CDK2/Cyclin E1
  IC50: 0.01 to 0.1 µM

## C[C@@H](OCC1CCC(F)(F)CC1)[C@H](NC(=O)[C@@H]1CN(C(=O)c2cncs2)CC12CN(C(=O)[C@H]1CC1(C)C)C2)C(=O)N1CC2CCC(C1)O2 [I-469]
[1]; 72 h
  IC50: ≤ 0.5 µM
Kuramochi cells
  IC50: 0.5 to 5 µM
CDK2/Cyclin E1
  IC50: ≤ 0.01 µM

## CNC(=O)[C@H](COCc1ccccc1)NC(=O)[C@H]1CN(C(=O)c2cnn(Cc3ccccc3)c2)CC12CN(C(=O)C1(C(F)(F)F)CC1)C2 [I-113B]
Kuramochi cells
  IC50: > 10 µM
CDK2/Cyclin E1
  IC50: > 10 µM

## CNC(=O)[C@@H](NC(=O)[C@@H]1CN(Cc2cccnc2)CC12CN(C(=O)[C@H]1CC1(C)C)C2)[C@@H](C)OCc1ccccc1 [I-49A]
Kuramochi cells
  IC50: > 10 µM
CDK2/Cyclin E1
  IC50: > 10 µM

## C[C@@H](OCC1CCCCC1)[C@H](NC(=O)[C@H]1CN(C(=O)c2cncs2)CC12CN(C(=O)[C@H]1CC1(C)C)C2)C(=O)N1CCC(F)(F)CC1 [I-192B]
Kuramochi cells
  IC50: > 10 µM
CDK2/Cyclin E1
  IC50: 1 to 10 µM

## C[C@@H](OCC1CCC(F)(F)CC1)[C@H](NC(=O)C1CN(C(=O)c2cnn(Cc3ccc(F)cc3)c2)CC12CN(C(=O)C1(C(F)(F)F)CC1)C2)C(=O)N1CCC(F)(F)CC1 (single isomer, unassigned) [I-190B]
[1]; 72 hours
  IC50: 5 to 20 µM
Kuramochi cells
  IC50: 0.5 to 5 µM
CDK2/Cyclin E1
  IC50: 0.1 to 1 µM

## CNC(=O)[C@@H](NC(=O)[C@@H]1CN(C(=O)c2cncs2)CC12CN(C(=O)[C@H]1CC1(C)C)C2)c1nnc(C2CCCCC2)o1 [I-429]
[1]; 72 h
  IC50: > 20 µM
Kuramochi cells
  IC50: > 10 µM
CDK2/Cyclin E1
  IC50: 1 to 10 µM

## C[C@@H]1C[C@H](C)CN(C(=O)[C@@H](NC(=O)[C@@H]2CN(C(=O)c3cn[nH]c3)CC23CN(C(=O)[C@H]2CC2(C)C)C3)[C@@H](C)OCC2CCCCC2)C1 [I-173A]
[1]; 72 h
  IC50: 0.5 to 5 µM
Kuramochi cells
  IC50: ≤ 0.5 µM
CDK2/Cyclin E1
  IC50: ≤ 0.01 µM

## C[C@@H](OCC1CCCCC1)[C@H](NC(=O)[C@@H]1CN(C(=O)c2cncs2)CC12CN(C(=O)[C@H]1CC1(C)C)C2)C(=O)N1CCC(F)(F)CC1 [I-192A]
[1]; 72 h
  IC50: ≤ 0.5 µM
Kuramochi cells
  IC50: ≤ 0.5 µM
CDK2/Cyclin E1
  IC50: ≤ 0.01 µM

## CNC(=O)[C@@H](NC(=O)[C@H]1CN(CC2CCOCC2)CC12CN(C(=O)[C@H]1CC1(C)C)C2)[C@@H](C)OCc1ccccc1 [I-68B]
Kuramochi cells
  IC50: > 10 µM
CDK2/Cyclin E1
  IC50: > 10 µM

## COCC1CCCN(C(=O)[C@@H](NC(=O)[C@H]2CN(C(=O)c3cnn(Cc4ccccc4)c3)CC23CN(C(=O)[C@H]2CC2(C)C)C3)[C@@H](C)OCC2CCCCC2)C1 (some centres unmarked) [I-111]
[1]; 72 h
  IC50: 0.5 to 5 µM
Kuramochi cells
  IC50: ≤ 0.5 µM
CDK2/Cyclin E1
  IC50: 0.01 to 0.1 µM

## C[C@@H](OCC1CCOCC1)[C@@H](COC(F)F)NC(=O)[C@@H]1CN(C(=O)c2cncs2)CC12CN(C(=O)[C@H]1CC1(C)C)C2 [I-441]
[1]; 72 h
  IC50: > 20 µM
CDK2/Cyclin E1
  IC50: 0.1 to 1 µM

## C[C@@H](OCC1CCCCC1)[C@H](NC(=O)[C@@H]1CN(C(=O)c2cnn(Cc3ccccc3)c2)CC12CN(C(=O)[C@H]1CC1(C)C)C2)C(=O)N1CCC[C@H](N)C1 [I-150A]
Kuramochi cells
  IC50: 0.5 to 5 µM
CDK2/Cyclin E1
  IC50: ≤ 0.01 µM

## CC(=O)N[C@H]1CCCN(C(=O)[C@@H](NC(=O)[C@@H]2CN(C(=O)c3cncs3)CC23CN(C(=O)[C@H]2CC2(C)C)C3)[C@@H](C)OCC2CCCCC2)C1 [I-330]
[1]; 72 h
  IC50: 0.5 to 5 µM
Kuramochi cells
  IC50: 5 to 10 µM
CDK2/Cyclin E1
  IC50: ≤ 0.01 µM

## C[C@@H](OCc1ccccc1)[C@H](NC(=O)C1CN(C(=O)c2cnn(Cc3ccccc3)c2)CC12CN(C(=O)C1CC1(C)C)C2)C(=O)NCCCCCN (some centres unmarked) [I-57]
Kuramochi cells
  IC50: > 10 µM
CDK2/Cyclin E1
  IC50: 0.01 to 0.1 µM

## Cc1ccc(CNC(=O)[C@@H]2CN(C(=O)c3cnn(Cc4ccccc4F)c3)CC23CN(C(=O)[C@H]2CC2(C)C)C3)nn1 [I-407]
[1]; 72 h
  IC50: > 20 µM
CDK2/Cyclin E1
  IC50: > 10 µM

## CNC(=O)[C@@H](NC(=O)[C@@H]1CN(C(=O)c2cnco2)CC12CN(C(=O)[C@H]1CC1(C)C)C2)[C@@H](C)OCc1ccccc1 [I-39A]
Kuramochi cells
  IC50: > 10 µM
CDK2/Cyclin E1
  IC50: 0.1 to 1 µM

## C[C@@H](OCC1CCCCC1)[C@H](NC(=O)[C@H]1CN(C(=O)c2cnn(Cc3ccccc3)c2)CC12CN(C(=O)[C@H]1CC1(C)C)C2)C(=O)N1CCC[C@H](N)C1 [I-150B]
Kuramochi cells
  IC50: > 10 µM
CDK2/Cyclin E1
  IC50: 1 to 10 µM

## C[C@@H]1C[C@H](C)CN(C(=O)[C@@H](NC(=O)[C@H]2CN(C(=O)c3cn[nH]c3)CC23CN(C(=O)[C@H]2CC2(C)C)C3)[C@@H](C)OCC2CCCCC2)C1 [I-173B]
Kuramochi cells
  IC50: > 10 µM
CDK2/Cyclin E1
  IC50: 1 to 10 µM

## C[C@@H](OCC1CCOCC1)[C@H](NC(=O)[C@@H]1CN(C(=O)c2cncs2)CC12CN(C(=O)[C@H]1CC1(C)C)C2)C(=O)N1CCC(c2ccncc2)CC1 [I-442]
[1]; 72 h
  IC50: 5 to 20 µM
CDK2/Cyclin E1
  IC50: ≤ 0.01 µM
